Source: US8703825B2, “Compounds, use thereof as medicaments, and method of preparation thereof” (Universite de Lorraine, priority 2008, dated 2014)
Converted amounts (≈) assume the structure as drawn. Like-named read-outs stand apart in the source and are kept apart here.

How the values were obtained:
Type in all cases: cell-based
[1] = tested on: MRSA (mecA gene), methicillin-resistant S. aureus (SaR1); experiment: MIC by microdilution, clinical isolate; conditions: Staphylococcus aureus
Description: (§1) The study also included 5 clinical isolates, obtained from rectal samples and/or from haemoculture: • […] E. coli (EcR1), • methicillin-resistant S. aureus (mecA gene) (SaR1), • vancomycin-resistant E. faecium (vanB gene) (EfR1), • E. faecalis resistant to teicoplanin and to vancomycin (vanA gene) (EfR2), and • P. aeruginosa overexpressing an efflux pump (PaRl).
(§2) The isolates were selected on the basis of their resistance profile. The resistance profiles were determined on VITEK2 (BioMérieux, France).
(§3) The bacteria are cultivated either on Mueller-Hinton agar (Difco, 225250), or in Mueller-Hinton broth (Difco, 275730), at 35° C. [Grare M, Mourer M, Fontanay S, Regnouf-de-Vains J B, Finance C, Duval R E. In vitro activity of para-guanidinoethylcalix[4]arene against susceptible and antibiotic-resistant Gram-negative and Gram-positive bacteria. J. Antimicrob Chemother. 2007; 60: 575-81].
(§4) The various molecules tested were prepared in the form of aqueous solution at 10^−2 mol/L. The solutions used for the biological tests are freshly prepared, and stored for a week at most, at 4° C. The solutions are filtered through a filter with pores of 0.22 μm (Millex®GP; 0.22 μm; Millipore; France) before each test.
(§5) Procedure for determining the Minimum Inhibitory Concentration (MIC)
(§6) The minimum inhibitory concentrations (MIC) were determined by the standardized method of microdilution in liquid medium (96-well microplate, U-shaped bottom, Greiner), in Mueller-Hinton broth, with a final inoculum of 10^5-10^6 CFU/mL, depending on the bacterial species, in accordance with the recommendations of the CLSI.
(§7) For the determination of MIC, bacterial suspensions are prepared from an isolated colony, taken from a Mueller-Hinton agar, taken up in 5 mL of Mueller-Hinton broth. After 24 h of growth, the bacterial suspensions are diluted in sterile distilled water in order to obtain an inoculum of 10^5-10^6 CFU/mL. The purity of the bacterial suspensions is tested by isolation on agar and Gram staining.
(§8) The results are the mean value of 4 independent experiments.

[2] = tested on: vancomycin-resistant E. faecium (vanB gene) (EfR1); experiment: MIC by microdilution, clinical isolate; conditions: Enterococcus faecium
Description: as §1, §2, §3, §4, §5, §6, §7, §8

[3] = tested on: HaCaT cells (human keratinocytes); experiment: Cellular viability test (MTT test); conditions: read-out: IC50 viability test (with MTT)
From the text: (§9) The eukaryotic cells used in our study are HaCaT cells (human keratinocytes), which were kindly supplied by the Pierre Fabre Institute (Toulouse, France); and MRC-5 cells (human embryonic fibroblasts), which were obtained from the company BioMérieux (Lyons, France). These cells are cultivated in DMEM (“Dulbecco's modified Eagle's medium”, Invitrogen 61965) for the HaCaT cells, and MEM (“modified Eagle's medium”, Invitrogen 41090); 10% of fetal calf serum (FCS, Invitrogen, 10270, Batch 40Q5150K) in a humid chamber at 37° C., under 5% CO2. The HaCaT and MRC-5 cells were seeded at 10^4 cells/well in 96-well plates (Sarstedt 831835). After 48 h of growth, the culture medium is withdrawn and replaced with the various “test” solutions (volume=100 μL). After contact time of 24, 48 and/or 168 H,the viability or cytotoxicity tests are carried out.
(§10) a) Cellular Viability Tests (MTT Test)
(§11) In order to evaluate the effect of the various compounds tested on the viability of HaCaT and MRC-5 cells, the MTT technique (3-[4,5-dimethylthiazol-2-yl]-2,5-diphenyltetrazolium bromide; MTT, Aldrich, 135038), described by Mosmann [Mosmann T. Rapid colorimetric assay for cellular growth and survival: application to proliferation and cytotoxicity assays. J Immunol Methods. 1983; 65: 55-63] and modified by Grare et al. [Grare M, Mourer M, Fontanay S, Regnouf-de-Vains J B, Finance C, Duval R E. In vitro activity of para-guanidinoethylcalix[4]arene against susceptible and antibiotic-resistant Gram-negative and Gram-positive bacteria. J Antimicrob Chemother. 2007; 60: 575-81], was used.
(§12) It is based on the reduction of yellow tetrazolium salts to purple crystals of formazan, mainly by mitochondrial dehydrogenases. The quantity of formazan formed is proportional to the number of live cells. After the contact times of 24, 48 and/or 168 h with the different concentrations of the test molecules, 10 nI, of MTT (at 5 mg/mL) is added to each well and the plates are placed at 37° C. After incubation for 4 H,the insoluble crystals of formazan that have formed are dissolved by adding 100 μL SDS to each well. The absorbance is measured at 540 nm with a reference wavelength at 690 nm, using an ELISA plate reader (Multiskan E X, Thermo Electron Corporation, France). The results are the mean of the values obtained for 8 wells per concentration and per unit time. Each experiment was carried out 3 times.

[4] = tested on: MRC-5 cells (human embryonic fibroblasts); experiment: Cellular viability test (MTT test); conditions: read-out: IC50 viability test (with MTT)
From the text: as §9, §10, §11, §12

in vitro = conditions: human
From the text: as §9
b) Cytotoxicity Tests (Neutral Red Test)
The cytotoxicity test is based on incorporation of a vital dye, Neutral Red, in the lysosomes of the viable cells, after exposure of the cells to different concentrations of the test molecules. The quantity of dye, after extraction from the lysosomes, is quantified by means of a spectrophotometer and compared with that obtained in the case of “control” cells, not exposed to the test molecules.
The test was carried out as described previously [Borenfreund E, Puerner J A. Toxicity determined in vitro by morphological alterations and neutral red absorption. Toxicol Lett 1985; 24: 119-24, and Grare M, Mourer M, Fontanay S, Regnouf-de-Vains J B, Finance C, Duval R E. In vitro activity of para-guanidinoethylcalix[4]arene against susceptible and antibiotic-resistant Gram-negative and Gram-positive bacteria. J Antimicrob Chemother. 2007; 60: 575-81].
After contact times of 24, 48 and/or 168 h with the different concentrations of the test molecules, the medium contained in each well is withdrawn and replaced with 200 μL of medium without phenol red (Invitrogen, 51200) containing 50 μg/mL of Neutral Red for an additional 3 h of incubation. The cells are then rinsed 3 times with PBS solution. After the last washing with PBS, 200 μL of a solution with 1% acetic acid/50% ethanol is added to each well to extract the dye from the lysosomes of the viable cells. The absorbance is measured at 540 nm, with a reference wavelength at 690 nm, by means of an ELISA plate reader (Multiskan E X, Thermo Electron Corporation, France). The results are the mean of the values obtained for 8 wells per concentration and per unit time. Each experiment was carried out 3 times.

[5] = tested on: Pseudomonas aeruginosa ATCC 27853; experiment: MIC by microdilution in liquid medium (CLSI / CA-SFM); conditions: P. aeruginosa ATCC 27853; HaCaT cell lines, 24 h exposure
[6] = clinical isolate, MRSA (mecA gene), read-out: MIC
[7] = clinical isolate, E. faecium (vanB gene), read-out: MIC

Structure (SMILES) | MIC [1, 6] [µg/mL] | MIC [2, 7] [µg/mL] | IC50 ([3]; 24 h) [µg/mL] | IC50 ([3]; 48 h) [µg/mL] | IC50 ([3]; 168 h) [µg/mL] | IC50 ([4]; MRC5, MRC-5, 24 h) [µg/mL] | IC50 ([4]; MRC5, MRC-5, 48 h) [µg/mL] | IC50 ([4]; MRC5, MRC-5, 168 h) [µg/mL] | CC50 at 24 h (in vitro) [µg/mL] | Selectivity index (SI=IC50/MIC) [5] | MIC ([1]; MRSA) [µg/mL] | MIC [2] [µg/mL] | IC50 ([4]; MRC5, 24 h) [µg/mL] | IC50 ([4]; MRC5, 48 h) [µg/mL] | IC50 ([4]; MRC5, 168 h) [µg/mL] | CC50 at 48 h (in vitro) [µg/mL] | CC50 at 168 h (in vitro) [µg/mL]
[H]/N=C(\N/C(=N/[H])NCCCCCCNC(=N)NC(=N)Nc1ccc(Cl)cc1)Nc1ccc(Cl)cc1 [CHX, chlorhexidine] | 0.5 (≈ 0.989 µM) | 1 (≈ 1.98 µM) | 8 to 16 (≈ 15.8 to 31.7 µM) | 4 to 8 (≈ 7.91 to 15.8 µM) | 2 to 4 (≈ 3.96 to 7.91 µM) | 16 to 32 (≈ 31.7 to 63.3 µM) | 8 to 16 (≈ 15.8 to 31.7 µM) | 1 to 2 (≈ 1.98 to 3.96 µM) | 8 to 16 (≈ 15.8 to 31.7 µM) | 2-4 | – | – | – | – | – | – | –
N=C(N)c1ccc(OCCCCCCOc2ccc(C(=N)N)cc2)cc1 [HX, hexamidine] | – | – | 32 to 64 (≈ 90.3 to 181 µM) | 16 to 32 (≈ 45.1 to 90.3 µM) | 4 to 8 (≈ 11.3 to 22.6 µM) | – | – | – | 8 to 16 (≈ 22.6 to 45.1 µM) | 1-2 | 2 (≈ 5.64 µM) | 2 (≈ 5.64 µM) | 32 to 64 (≈ 90.3 to 181 µM) | 16 to 32 (≈ 45.1 to 90.3 µM) | 4 to 8 (≈ 11.3 to 22.6 µM) | 8 to 16 (≈ 22.6 to 45.1 µM) | –
N=C(N)NCCc1ccc(OCCCCCCOc2ccc(CCNC(=N)N)cc2)cc1 [compound 6, 1,6-bis(4-(2-guanidinoethyl)phenoxy)hexane] | < 1 | 8 (≈ 18.2 µM) | 4 to 8 (≈ 9.08 to 18.2 µM) | 4 to 8 (≈ 9.08 to 18.2 µM) | 1 to 2 (≈ 2.27 to 4.54 µM) | 8 to 16 (≈ 18.2 to 36.3 µM) | 4 to 8 (≈ 9.08 to 18.2 µM) | 0.5 to 1 (≈ 1.13 to 2.27 µM) | 4 to 8 (≈ 9.08 to 18.2 µM) | 0.25-0.5 | – | – | – | – | – | 2 to 4 (≈ 4.54 to 9.08 µM) | 1 to 2 (≈ 2.27 to 4.54 µM)
